# In US12551500B2, “C6′-substituted locked nucleic acid-modified cap analog and use thereof” (Hangzhou Tianlong Pharmaceutical Co., Ltd., priority 2024, dated 2026):
# Tests used:
# [1] = biological target: T7 RNA polymerase (Escherichia phage T7, UniProt P00573); experiment: In vitro transcription yield of mRNA with cap analog (co-transcriptional capping); type: biochemical; settings: for Yield per unit template: in vitro transcription, 1 μg DNA template, 20 μL system, 37° C. 2 hours; for transcription yield higher than that of compound 14: relative to compound 14
# T7 RNA polymerase, sequence (P00573 whole entry): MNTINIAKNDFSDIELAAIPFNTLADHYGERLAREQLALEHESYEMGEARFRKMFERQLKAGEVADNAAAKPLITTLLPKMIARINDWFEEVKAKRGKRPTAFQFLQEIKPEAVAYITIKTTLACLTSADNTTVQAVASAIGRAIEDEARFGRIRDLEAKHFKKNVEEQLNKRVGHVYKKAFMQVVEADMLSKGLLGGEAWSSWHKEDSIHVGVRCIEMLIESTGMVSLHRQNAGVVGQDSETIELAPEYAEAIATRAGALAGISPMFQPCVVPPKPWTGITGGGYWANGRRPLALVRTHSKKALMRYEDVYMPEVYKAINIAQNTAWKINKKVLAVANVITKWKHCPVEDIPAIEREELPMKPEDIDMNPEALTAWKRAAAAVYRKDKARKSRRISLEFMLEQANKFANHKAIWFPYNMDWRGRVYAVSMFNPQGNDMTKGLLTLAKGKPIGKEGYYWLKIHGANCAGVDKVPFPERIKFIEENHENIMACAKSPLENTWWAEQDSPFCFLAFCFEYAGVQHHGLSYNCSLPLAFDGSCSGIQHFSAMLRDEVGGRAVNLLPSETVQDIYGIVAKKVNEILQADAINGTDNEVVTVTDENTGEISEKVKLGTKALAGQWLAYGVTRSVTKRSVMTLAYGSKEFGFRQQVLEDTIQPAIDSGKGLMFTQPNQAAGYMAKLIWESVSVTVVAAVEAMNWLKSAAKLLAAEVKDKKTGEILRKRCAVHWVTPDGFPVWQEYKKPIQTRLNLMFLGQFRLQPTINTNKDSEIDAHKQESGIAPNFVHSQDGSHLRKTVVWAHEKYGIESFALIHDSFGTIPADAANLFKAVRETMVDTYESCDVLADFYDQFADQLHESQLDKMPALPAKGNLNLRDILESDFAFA
# Protocol: (1) Capping synthesis using cap analogs
# The plasmid was first linearized with plasmid linearizing enzyme, and then the linearized plasmid was purified.
# (2) In vitro transcription and synthesis of mRNA
# YK-CAP-001 to 006 and compound 14 in Table 1 were respectively used as cap analogs.
# During the experiment, the volume of materials required for the system was first calculated, and then sample addition was conducted. The system was first added with sterile enzyme-free water, followed by the sequential addition of 10× buffer, NTPs, and cap analogs, mixed well, and gently centrifuged. Nuclease inhibitors, inorganic pyrophosphatase, T7 RNA polymerase, and linearized DNA templates were then added thereto. The system was mixed well, gently centrifuged, and incubated at 37° C. After 2 hours of incubation, the system was added with 1 U of DNase I and incubated at 37° C. for another 30 minutes. The mRNA precipitate was then washed with 75% ethanol, and after the ethanol was briefly evaporated to dryness, the mRNA was redissolved in sterile enzyme-free water.
# (3) The transcription product was purified, and the in vitro transcription yield of mRNA was recorded.
# [2] = Characterization of lipid nanoparticles encapsulating Fluc-mRNA; type: physicochemical; settings: for Particle size: LNP (YK-009/DSPC/cholesterol/DMG-PEG2000) encapsulating Fluc-mRNA transcribed using the cap analog; for PDI: LNP encapsulating Fluc-mRNA transcribed using the cap analog; for EE: encapsulation efficiency of LNP encapsulating Fluc-mRNA transcribed using the cap analog
# Protocol: Cationic lipid YK-009 (Beijing Youcare Kechuang Pharmaceutical Technology Co., Ltd.), DSPC (AVT (Shanghai) Pharmaceutical Technology Co., Ltd.), cholesterol (AVT (Shanghai) Pharmaceutical Technology Co., Ltd.), and DMG-PEG2000 were dissolved in ethanol at a molar ratio of 49:10:39.5:1.5, and the mRNA was diluted in 50 mM citrate buffer (pH=4). The ethanol lipid solution was mixed with the Fluc-mRNA aqueous solution prepared from different cap structures at a volume ratio of 1:3 using a microfluidic device at a flow rate of 10 mL/min to prepare LNPs at a weight ratio of total lipid to mRNA of approximately 15:1. The resulting liposomes were diluted to 10-fold volume with PBS, and then ultrafiltered with a 300 KDa ultrafiltration tube to remove ethanol. The volume was then fixed to a certain volume with PBS. Finally, the LNPs were filtered through a 0.2 μm sterile filter to obtain an LNP preparation encapsulating Fluc-mRNA using YK-009/DSPC/cholesterol/DMG-PEG2000 (at a molar ratio of 49:10:39.5:1.5).
# The particle size and polydispersity index (PDI) were determined by dynamic light scattering using a Malvern laser particle size analyzer. 10 μL of the liposome solution was taken, diluted to 1 mL with RNase-free deionized water, and added to a sample pool. Each sample was measured in triplicate. The measurement conditions were: a scattering angle of 90° and a temperature of 25° C. The encapsulation efficiency of LNPs was determined using the Quant-iT RiboGreen RNA Quantification Kit (Thermo Fisher Scientific, UK) according to the manufacturer's instructions.
# [3] = tested on: HEK293T cells; experiment: Translation efficiency of capped luciferase mRNAs; type: cell-based; settings: for relative fluorescence intensity, times that of HN3002: ratio to HN3002; for relative fluorescence intensity, times that of N-7413: ratio to N-7413; for relative fluorescence intensity, times that of YK-CAP-001: ratio to YK-CAP-001; for relative fluorescence intensity, times that of YK-CAP-002: ratio to YK-CAP-002; for relative fluorescence intensity, times that of m6A: ratio to m6A
# Protocol: (1) HEK293T cells were cultured in DMEM medium containing 10% FBS and penicillin/streptomycin at 37° C. with 5% CO2.
# (2) Cells in the culture dish were digested and counted, then spread in a 96-well plate at 10,000 cells per well, and cultured overnight until the cells adhered to the wall.
# (3) When the cell density reached approximately 80%, transfection was performed by adding 0.5 μg of mRNA sample and Lipofectamine MessengerMAX Transfection Reagent (Invitrogen) per well according to the manufacturer's instructions.
# (4) After the transfected cells were cultured at 37° C. with 5% CO2 for 24 hours, the growth medium was removed from the cells to be tested, and the cells were rinsed with PBS. After centrifugation to remove PBS, 50 μL of 1× lysis buffer was added. The cells and all liquid were transferred to a microcentrifuge tube and centrifuged.
# (5) 20 μL of sample was taken and added to 100 μL of Dual-Lumi™ II Luciferase Assay Reagent pre-equilibrated to room temperature, and mixed appropriately.
# (6) The mixture was incubated at room temperature (approximately 25° C.) for 5 minutes to stabilize the luminescence signal. Chemiluminescence was detected using a multifunctional microplate reader with a function for detecting chemiluminescence, and the data were recorded.
# [4] = tested on: BALB/C mice; experiment: In vivo imaging of protein expressed by LNP-carrying Fluc-mRNA in mice; settings: for Average radiation intensity: female BALB/C mice; for average radiation intensity, times that of N-7413: ratio to N-7413; for average radiation intensity, times that of YK-CAP-001: ratio to YK-CAP-001; for average radiation intensity, times that of YK-CAP-002: ratio to YK-CAP-002; for average radiation intensity, times that of compound 14: ratio to compound 14; for average radiation intensity, times that of m6A: ratio to m6A
# Protocol: The LNP preparation containing […] of Fluc-mRNAs transcribed using the cap analogs YK-CAP-001 to 006 in the present disclosure and the cap analogs N-7413, compound 14, and m6A in the prior art was intramuscularly injected into female BALB/C mice aged 4 to 6 weeks and weighing 17 to 19 g. At specific time points after administration (6 hours, 12 hours, 24 hours, 48 hours, 96 hours, and 168 hours), the mice were intraperitoneally injected with fluorescence imaging substrate. The mice were then allowed to move freely for 5 minutes, followed by detection of the average radiation intensity (corresponding to the amount of protein expression) of the protein expressed by LNP-carrying mRNA in the mice using an IVIS Spectrum small-animal in vivo imaging system.
# [5] = 6 h after intramuscular injection of LNP Fluc-mRNA
# [6] = 12 h after intramuscular injection of LNP Fluc-mRNA
# [7] = 24 h after intramuscular injection of LNP Fluc-mRNA
# [8] = 48 h after intramuscular injection of LNP Fluc-mRNA
# [9] = 96 h after intramuscular injection of LNP Fluc-mRNA
# [10] = 168 h after intramuscular injection of LNP Fluc-mRNA
Structure (SMILES),Yield per unit template [1],transcription yield higher than that of compound 14 [1],Particle size [2],PDI [2],EE [2],"relative fluorescence intensity, times that of HN3002 [3]","relative fluorescence intensity, times that of N-7413 [3]","relative fluorescence intensity, times that of YK-CAP-001 [3]","relative fluorescence intensity, times that of YK-CAP-002 [3]","relative fluorescence intensity, times that of m6A [3]","Average radiation intensity [4, 5]","Average radiation intensity [4, 6]","Average radiation intensity [4, 7]","Average radiation intensity [4, 8]","Average radiation intensity [4, 9]","Average radiation intensity [4, 10]","average radiation intensity, times that of N-7413 ([4]; at 6 hours)","average radiation intensity, times that of YK-CAP-001 ([4]; at 6 hours)","average radiation intensity, times that of YK-CAP-002 ([4]; at 6 hours)","average radiation intensity, times that of compound 14 ([4]; at 6 hours)",other results
COC1C(OP(=O)([O-])OC[C@H]2O[C@@H](n3cnc4c(=O)[nH]c(N)nc43)C(O)C2O)[C@@H](COP(=O)(O)OP(=O)(O)OP(=O)(O)OC[C@]23O[C@@H]([n+]4cn(C)c5c(=O)[nH]c(N)nc54)C(O[C@H]2CC(=O)N(C)C)C3O)O[C@H]1n1cnc2c(N)ncnc21 (stereo partly drawn) [YK-CAP-003],151.0 µg,24.9%,82.83 nm,0.032,95.6%,1.1 times,1.2 times,1.6 times,1.8 times,3.5 times,3212750 p/s/cm^2/sr,2454750 p/s/cm^2/sr,1053625 p/s/cm^2/sr,700200 p/s/cm^2/sr,57893 p/s/cm^2/sr,19016 p/s/cm^2/sr,1.2 times,1.9 times,2.2 times,1.2 times,"average radiation intensity, times that of m6A ([4]; at 6 hours): 1.8 times; average radiation intensity, times that of N-7413 ([4]; at 96 hours): 0.8 times; average radiation intensity, times that of YK-CAP-001 ([4]; at 96 hours): 1.3 times; average radiation intensity, times that of YK-CAP-002 ([4]; at 96 hours): 2.8 times; average radiation intensity, times that of compound 14 ([4]; at 96 hours): 1.0 times; average radiation intensity, times that of m6A ([4]; at 96 hours): 1.7 times"
COC1C(OP(=O)([O-])OC[C@H]2O[C@@H](n3cnc4c(=O)[nH]c(N)nc43)C(O)C2O)[C@@H](COP(=O)(O)OP(=O)(O)OP(=O)(O)OC[C@]23O[C@@H]([n+]4cn(C)c5c(=O)[nH]c(N)nc54)C(O[C@H]2CC(F)F)C3O)O[C@H]1n1cnc2c(N)ncnc21 (stereo partly drawn) [YK-CAP-004],163.2 µg,35.0%,89.39 nm,0.065,93.7%,1.2 times,1.4 times,1.8 times,2.0 times,4.0 times,3856100 p/s/cm^2/sr,2836750 p/s/cm^2/sr,1159325 p/s/cm^2/sr,903025 p/s/cm^2/sr,114933 p/s/cm^2/sr,19785 p/s/cm^2/sr,1.4 times,2.2 times,2.6 times,1.5 times,"transcription yield higher than that of YK-CAP-001 ([1]; relative to YK-CAP-001): 82.8%; transcription yield higher than that of YK-CAP-002 ([1]; relative to YK-CAP-002): 58.3%; average radiation intensity, times that of m6A ([4]; at 6 hours): 2.1 times; average radiation intensity, times that of N-7413 ([4]; at 96 hours): 1.7 times; average radiation intensity, times that of YK-CAP-001 ([4]; at 96 hours): 2.6 times; average radiation intensity, times that of YK-CAP-002 ([4]; at 96 hours): 5.5 times; average radiation intensity, times that of compound 14 ([4]; at 96 hours): 2.0 times; average radiation intensity, times that of m6A ([4]; at 96 hours): 3.4 times"
